Experimental data from patent US20090197957A1, “Methods and compositions for the treatment of pain” (Nuon Therapeutics, Inc., priority 2005, published 2009).
“And” between values parts separate entries of the source, which are not always exact repeats. Equal entries are not always repeated.

Assays:
[1] = test system: acetic acid-induced writhing; experiment: Analgesia, acetic acid writhing in mice (Example 3); type: in vivo, mouse; settings: 100 mg/kg PO
Experimental: 3-Hydroxyanthranilic acid was evaluated for possible analgesic activity in mouse acetic acid-induced pain response assay.
3-Hydroxyanthranilic acid was purchased from Sigma (USA) by MDS Pharma Services-Taiwan Ltd. and administered orally at the doses of 400, 200 and 100 mg/kg for analgesia, acetic acid-induced writhing assay. 2% Tween 80 was used as the vehicle.
Male CD-1 (Crl.) mice provided by BioLasco Taiwan (under Charles River Laboratories Technology Licensee) were used. Space allocation for 10 animals was 29×18×13 cm. All animals were maintained in a controlled temperature (23° C.-24° C.) and humidity (60%-70%) environment with 12 hours light dark cycles for at least one week in MDS Pharma Services—Taiwan Laboratory prior to use. Free access to standard lab chow for Mice (LabDiet Rodent Diet, PMI Nutrition International, USA) and tap water was granted. All aspects of this work including housing, experimentation and disposal of animals were performed in general accordance with the Guide for the Care and Use of Laboratory Animals (National Academy Press, Washington, D.C., 1996).
Test substance was administered orally to groups of 5 CD-1 (Crl.) derived male or female mice weighing 24±2 g, 2 hour before injection of acetic acid (0.5%, 20 ml/kg IP). Reduction in the number of writhes by 50 percent or more (≧50%) per group of animals observed during the 5 to 10 minute period after acetic acid administration, relative to a vehicle-treated control group, indicates possible analgesic activity.
Test substance was administered orally to groups of 5 mice 1 hour before injection of 0.5% Acetic Acid (20 ml/kg IP). The number of writhing per group of animals observed during the 5 to 10 minute period after acetic acid challenge was observed. Reduction in the number of writhing by 50 percent or more (≧50%) relative to the vehicle-treated control group indicates possible analgesic activity.

[2] = test system: acetic acid-induced writhing; experiment: Analgesia, acetic acid writhing in mice (Assay #503900, Example 1); type: in vivo, mouse; settings: 30 mg/kg PO, 60 minutes before acetic acid
[3] = patients in a colorectal adenoma prevention trial; cited from earlier work
[4] = similar adenoma prevention trial; cited from earlier work
[5] = short-term use following coronary artery by-pass surgery; cited from earlier work

SMILES: CC(=O)Oc1ccccc1C(=O)O [Aspirin]
- No. of Writhing Average ([1]; group of 5 mice): 5
- % Inhibition ([1]; relative to vehicle control): (62) %
- No. of Writhing Individual ([1]; single mice): 0 and 8 and 3 and 7 and 9

SMILES: CC(C)Cc1ccc(C(C)C(=O)O)cc1 (stereo not shown) [Ibuprofen]
- No. of Writhing Average ([2]; group of 5 mice): 8
- % Inhibition ([2]; relative to vehicle control): (53) %
- No. of Writhing Individual ([2]; single mice): 6 and 8 (2×) and 10 (2×)

SMILES: CS(=O)(=O)c1ccc(C2=C(c3ccccc3)C(=O)OC2)cc1 [Rofecoxib, rofecoxib]
- risk of heart attacks or strokes [3]: double the risk

SMILES: Cc1ccc(-c2cc(C(F)(F)F)nn2-c2ccc(S(N)(=O)=O)cc2)cc1 [celecoxib]
- risk of adverse cardiovascular events [4]: triple the risk

SMILES: CCC(=O)NS(=O)(=O)c1ccc(-c2c(-c3ccccc3)noc2C)cc1 [parecoxib]
- incidence of cardiovascular events [5]: increased incidence

SMILES: Cc1onc(-c2ccccc2)c1-c1ccc(S(N)(=O)=O)cc1 [valdecoxib]
- incidence of cardiovascular events [5]: increased incidence
